Measurements from patent US8822517B2, “Arylosulfonamides for the treatment of CNS diseases” (Adamed SP. Z O.O., priority 2010, dated 2014).

Key:
adrenergic α1 receptor = assay: Binding assay α1 (non-selective), [3H]prazosin, rat cerebral cortex; conditions: percent inhibition of control specific binding; compounds tested at 1×10^−6 M
Method in brief: (§1)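 Total binding and binding under an excess of unlabelled competitor were both measured, the difference giving specific binding. Counts came from scintillation detection, and compound concentration was 1×10^−6 M.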

dopaminergic D2 receptor = dopaminergic D2 receptor (Homo sapiens, UniProt P14416); assay: Binding assay D2S (h), [3H]methyl-spiperone, HEK-293 cells; parameters: expressed in transfected cells; host or cells: HEK-293 cells; conditions: read-out: D2 [%]
dopaminergic D2 receptor, sequence (P14416 1-414 isoform P14416-2): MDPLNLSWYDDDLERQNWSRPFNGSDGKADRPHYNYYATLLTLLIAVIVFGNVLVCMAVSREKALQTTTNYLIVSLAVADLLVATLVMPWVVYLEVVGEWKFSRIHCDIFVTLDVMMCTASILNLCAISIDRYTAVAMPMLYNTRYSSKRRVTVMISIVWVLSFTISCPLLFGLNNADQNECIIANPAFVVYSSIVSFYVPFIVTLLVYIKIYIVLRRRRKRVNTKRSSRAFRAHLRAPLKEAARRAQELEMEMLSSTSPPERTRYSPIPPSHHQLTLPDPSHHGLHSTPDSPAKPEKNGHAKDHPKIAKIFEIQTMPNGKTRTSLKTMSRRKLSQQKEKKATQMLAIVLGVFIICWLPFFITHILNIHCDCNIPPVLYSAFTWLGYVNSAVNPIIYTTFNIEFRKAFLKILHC
Method in brief: as §1

[1] = target: serotoninergic 5-HT2A receptor (Homo sapiens, UniProt P28223); assay: Binding assay 5-HT2A (h), [3H]ketanserin, HEK-293 cells; parameters: expressed in transfected cells; host or cells: HEK-293 cells; conditions: read-out: 5-HT2A
serotoninergic 5-HT2A receptor, sequence (P28223 whole entry): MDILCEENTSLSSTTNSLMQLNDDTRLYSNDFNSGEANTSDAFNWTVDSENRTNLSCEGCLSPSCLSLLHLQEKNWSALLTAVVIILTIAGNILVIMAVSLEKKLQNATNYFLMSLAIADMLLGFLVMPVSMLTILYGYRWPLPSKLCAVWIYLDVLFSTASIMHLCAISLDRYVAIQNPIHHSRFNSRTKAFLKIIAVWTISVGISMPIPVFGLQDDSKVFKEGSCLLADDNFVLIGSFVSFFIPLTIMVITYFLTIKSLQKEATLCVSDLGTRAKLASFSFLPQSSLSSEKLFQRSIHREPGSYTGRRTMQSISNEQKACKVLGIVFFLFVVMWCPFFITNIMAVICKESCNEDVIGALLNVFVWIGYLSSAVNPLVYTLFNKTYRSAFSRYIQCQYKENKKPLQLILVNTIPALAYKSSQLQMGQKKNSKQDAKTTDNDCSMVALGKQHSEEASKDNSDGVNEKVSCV
Method in brief: as §1

[2] = target: T1, serotoninergic receptor 5-HT2C (Homo sapiens, UniProt P28335); assay: Binding assay 5-HT2C (h), [3H]mesulergine, HEK-293 cells; conditions: read-out: 5-HT2C [%]
T1 construct: expressed in transfected cells; host or cells: HEK-293 cells
T1 sequence (P28335 33-458): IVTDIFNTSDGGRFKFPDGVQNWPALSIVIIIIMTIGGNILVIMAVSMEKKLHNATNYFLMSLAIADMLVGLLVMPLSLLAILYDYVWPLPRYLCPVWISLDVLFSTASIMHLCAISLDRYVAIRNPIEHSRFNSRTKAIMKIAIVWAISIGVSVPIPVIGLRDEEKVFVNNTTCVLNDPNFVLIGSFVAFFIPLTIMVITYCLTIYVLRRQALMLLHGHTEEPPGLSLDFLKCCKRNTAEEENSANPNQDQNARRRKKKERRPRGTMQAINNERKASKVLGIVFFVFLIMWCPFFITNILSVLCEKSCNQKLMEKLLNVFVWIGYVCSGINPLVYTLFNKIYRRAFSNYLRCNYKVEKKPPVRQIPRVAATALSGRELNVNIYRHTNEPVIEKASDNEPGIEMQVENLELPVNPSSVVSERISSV
Method in brief: as §1

[3] = target: T2, serotoninergic 5-HT1A receptor (Homo sapiens, UniProt P08908); assay: Binding assay 5-HT1A (h), [3H]8-OH-DPAT, HEK-293 cells; parameters: expressed in transfected cells; host or cells: HEK-293 cells; conditions: read-out: 5-HT1A
T2 sequence (P08908 1-422): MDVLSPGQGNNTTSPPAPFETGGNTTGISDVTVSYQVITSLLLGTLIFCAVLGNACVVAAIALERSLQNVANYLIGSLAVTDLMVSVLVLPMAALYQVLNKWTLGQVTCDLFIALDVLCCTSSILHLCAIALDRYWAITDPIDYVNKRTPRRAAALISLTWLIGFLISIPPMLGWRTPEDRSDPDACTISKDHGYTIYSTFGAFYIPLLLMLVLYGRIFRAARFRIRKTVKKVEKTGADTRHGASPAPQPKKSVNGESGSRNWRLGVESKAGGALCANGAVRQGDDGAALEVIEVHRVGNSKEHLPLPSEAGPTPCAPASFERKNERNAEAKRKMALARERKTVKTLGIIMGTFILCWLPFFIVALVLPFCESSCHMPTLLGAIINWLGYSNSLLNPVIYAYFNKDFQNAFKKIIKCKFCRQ
Method in brief: as §1

dopaminergic D3 receptor = dopaminergic D3 receptor (Homo sapiens, UniProt P35462); assay: Binding assay D3 (h), [3H]methyl-spiperone, CHO cells; parameters: expressed in transfected cells; host or cells: CHO cells; conditions: read-out: D3 [%]
dopaminergic D3 receptor, sequence (P35462 whole entry): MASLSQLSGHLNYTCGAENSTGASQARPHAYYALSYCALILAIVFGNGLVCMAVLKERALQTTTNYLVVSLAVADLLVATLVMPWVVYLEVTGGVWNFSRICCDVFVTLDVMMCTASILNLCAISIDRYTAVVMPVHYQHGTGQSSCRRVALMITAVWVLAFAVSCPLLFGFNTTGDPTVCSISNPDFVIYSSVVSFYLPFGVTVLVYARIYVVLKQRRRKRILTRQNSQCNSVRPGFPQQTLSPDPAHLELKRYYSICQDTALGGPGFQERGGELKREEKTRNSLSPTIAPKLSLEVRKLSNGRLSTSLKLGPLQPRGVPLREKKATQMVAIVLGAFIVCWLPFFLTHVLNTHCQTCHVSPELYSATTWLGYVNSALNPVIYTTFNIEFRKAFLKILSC
Method in brief: as §1

[4] = target: serotoninergic 5-HT7 receptor (Homo sapiens, UniProt P34969); assay: Binding assay 5-HT7 (h), [3H]LSD, CHO cells; parameters: expressed in transfected cells; host or cells: CHO cells; conditions: read-out: 5-HT7
serotoninergic 5-HT7 receptor, sequence (P34969 whole entry): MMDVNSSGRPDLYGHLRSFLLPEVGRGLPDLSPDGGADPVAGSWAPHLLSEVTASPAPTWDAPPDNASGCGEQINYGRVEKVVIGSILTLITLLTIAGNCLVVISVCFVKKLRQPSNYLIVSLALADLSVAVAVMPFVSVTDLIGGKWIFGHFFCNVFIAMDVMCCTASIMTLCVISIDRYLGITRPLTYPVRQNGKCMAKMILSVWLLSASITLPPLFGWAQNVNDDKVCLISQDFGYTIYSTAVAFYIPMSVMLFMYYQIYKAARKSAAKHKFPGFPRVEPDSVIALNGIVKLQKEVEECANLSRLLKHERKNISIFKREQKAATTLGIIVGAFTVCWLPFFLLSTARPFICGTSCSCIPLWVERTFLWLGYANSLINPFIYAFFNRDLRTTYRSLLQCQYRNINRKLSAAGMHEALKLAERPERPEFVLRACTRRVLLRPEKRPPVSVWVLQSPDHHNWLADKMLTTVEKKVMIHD
Method in brief: as §1

[5] = target: serotoninergic 5-HT6 receptor (Homo sapiens, UniProt P50406); assay: Binding assay 5-HT6 (h), [3H]LSD, CHO cells; parameters: expressed in transfected cells; host or cells: CHO cells; conditions: read-out: 5-HT6
serotoninergic 5-HT6 receptor, sequence (P50406 whole entry): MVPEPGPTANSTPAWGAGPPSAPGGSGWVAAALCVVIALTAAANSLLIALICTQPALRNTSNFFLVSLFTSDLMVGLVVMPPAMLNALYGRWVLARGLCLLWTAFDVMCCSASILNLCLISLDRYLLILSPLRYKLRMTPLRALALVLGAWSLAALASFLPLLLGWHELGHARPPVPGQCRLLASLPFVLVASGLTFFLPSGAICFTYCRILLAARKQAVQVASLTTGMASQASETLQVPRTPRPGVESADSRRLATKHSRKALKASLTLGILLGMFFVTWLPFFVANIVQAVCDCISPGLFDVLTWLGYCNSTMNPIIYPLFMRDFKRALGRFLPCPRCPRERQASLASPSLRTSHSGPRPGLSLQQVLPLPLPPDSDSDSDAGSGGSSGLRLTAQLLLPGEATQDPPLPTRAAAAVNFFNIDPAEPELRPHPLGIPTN
Method in brief: as §1

muscarinic M3 receptor = target: T3, muscarinic M3 receptor (Homo sapiens, UniProt P20309); assay: Binding assay M3 (h), [3H]4-DAMP, CHO cells; conditions: read-out: M3 [%]
T3 construct: expressed in transfected cells; host or cells: CHO cells
T3 sequence (P20309 whole entry): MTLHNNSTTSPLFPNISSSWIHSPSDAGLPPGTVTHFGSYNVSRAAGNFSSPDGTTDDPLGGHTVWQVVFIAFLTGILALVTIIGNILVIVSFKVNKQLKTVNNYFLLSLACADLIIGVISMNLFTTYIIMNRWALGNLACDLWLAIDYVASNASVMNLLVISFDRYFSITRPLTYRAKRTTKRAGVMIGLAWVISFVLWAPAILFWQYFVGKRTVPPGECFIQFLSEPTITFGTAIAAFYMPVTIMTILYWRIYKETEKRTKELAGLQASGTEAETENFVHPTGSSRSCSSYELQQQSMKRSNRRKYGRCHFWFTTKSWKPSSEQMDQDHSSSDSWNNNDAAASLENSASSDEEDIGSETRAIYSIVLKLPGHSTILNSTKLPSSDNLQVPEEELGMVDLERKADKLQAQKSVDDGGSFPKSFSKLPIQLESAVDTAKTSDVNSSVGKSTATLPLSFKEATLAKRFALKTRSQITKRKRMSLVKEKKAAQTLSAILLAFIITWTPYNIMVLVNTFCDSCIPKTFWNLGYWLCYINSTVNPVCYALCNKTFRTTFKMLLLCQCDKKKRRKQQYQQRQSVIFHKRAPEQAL
Method in brief: as §1

adrenergic α2C receptor = target: T4, adrenergic α2C receptor (Homo sapiens, UniProt P18825); assay: Binding assay α2C (h), [3H]RX 821002, CHO cells; parameters: expressed in transfected cells; host or cells: CHO cells; conditions: read-out: α2C [%]
T4 sequence (P18825 1-462): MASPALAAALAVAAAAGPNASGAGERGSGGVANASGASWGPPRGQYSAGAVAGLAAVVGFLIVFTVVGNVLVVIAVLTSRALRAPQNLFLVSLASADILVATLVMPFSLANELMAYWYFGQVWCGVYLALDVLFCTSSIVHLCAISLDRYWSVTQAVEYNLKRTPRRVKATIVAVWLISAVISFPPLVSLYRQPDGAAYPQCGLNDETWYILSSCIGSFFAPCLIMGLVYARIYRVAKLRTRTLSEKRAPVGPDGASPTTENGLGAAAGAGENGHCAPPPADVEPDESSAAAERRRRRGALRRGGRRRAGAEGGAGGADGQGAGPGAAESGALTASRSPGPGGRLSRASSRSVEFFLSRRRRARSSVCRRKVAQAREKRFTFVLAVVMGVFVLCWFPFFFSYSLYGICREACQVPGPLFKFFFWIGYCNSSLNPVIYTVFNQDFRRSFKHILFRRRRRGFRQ
Method in brief: as §1

sigma σ receptor = assay: Binding assay σ (non-selective), [3H]DTG, rat cerebral cortex; conditions: percent inhibition of control specific binding; compounds tested at 1×10^−6 M
Experimental: The specific ligand binding to the receptors is defined as the difference between the total binding and the nonspecific binding determined in the presence of an excess of so unlabelled ligand.
The specific Ligand binding to the receptor is defined as the difference between total and non-specific binding determined in the presence of an excess of unlabelled ligand. The compounds were tested at a concentration of 1×10^−6 M, and scintillation counting was the method of detection of ligand binding.

[6] = target: histaminergic H1 receptor (Homo sapiens, UniProt P35367); assay: Binding assay H1 (h), [3H]pyrilamine, HEK-293 cells; parameters: expressed in transfected cells; host or cells: HEK-293 cells; conditions: read-out: H1 [%]
histaminergic H1 receptor, sequence (P35367 whole entry): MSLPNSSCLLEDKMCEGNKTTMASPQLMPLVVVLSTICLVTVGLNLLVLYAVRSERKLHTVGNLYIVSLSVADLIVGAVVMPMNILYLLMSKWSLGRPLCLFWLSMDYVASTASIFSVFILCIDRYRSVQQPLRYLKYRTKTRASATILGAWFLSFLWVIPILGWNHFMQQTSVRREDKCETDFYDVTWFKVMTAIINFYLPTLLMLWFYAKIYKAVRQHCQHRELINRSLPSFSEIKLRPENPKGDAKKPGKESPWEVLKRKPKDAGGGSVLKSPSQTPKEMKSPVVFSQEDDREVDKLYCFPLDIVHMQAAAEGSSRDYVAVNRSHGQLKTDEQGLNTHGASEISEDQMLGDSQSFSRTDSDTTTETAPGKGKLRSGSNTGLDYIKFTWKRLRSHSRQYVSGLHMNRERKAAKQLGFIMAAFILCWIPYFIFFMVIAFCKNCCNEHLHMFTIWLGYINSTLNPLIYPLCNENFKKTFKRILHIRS
Method in brief: as §1

[7] = target: T5, serotonine transporter (SERT) receptor (Homo sapiens, UniProt P31645); assay: Binding assay SERT (h), [3H]imipramine, CHO cells; conditions: read-out: SERT [%]
T5 construct: expressed in transfected cells; host or cells: CHO cells
T5 sequence (P31645 whole entry): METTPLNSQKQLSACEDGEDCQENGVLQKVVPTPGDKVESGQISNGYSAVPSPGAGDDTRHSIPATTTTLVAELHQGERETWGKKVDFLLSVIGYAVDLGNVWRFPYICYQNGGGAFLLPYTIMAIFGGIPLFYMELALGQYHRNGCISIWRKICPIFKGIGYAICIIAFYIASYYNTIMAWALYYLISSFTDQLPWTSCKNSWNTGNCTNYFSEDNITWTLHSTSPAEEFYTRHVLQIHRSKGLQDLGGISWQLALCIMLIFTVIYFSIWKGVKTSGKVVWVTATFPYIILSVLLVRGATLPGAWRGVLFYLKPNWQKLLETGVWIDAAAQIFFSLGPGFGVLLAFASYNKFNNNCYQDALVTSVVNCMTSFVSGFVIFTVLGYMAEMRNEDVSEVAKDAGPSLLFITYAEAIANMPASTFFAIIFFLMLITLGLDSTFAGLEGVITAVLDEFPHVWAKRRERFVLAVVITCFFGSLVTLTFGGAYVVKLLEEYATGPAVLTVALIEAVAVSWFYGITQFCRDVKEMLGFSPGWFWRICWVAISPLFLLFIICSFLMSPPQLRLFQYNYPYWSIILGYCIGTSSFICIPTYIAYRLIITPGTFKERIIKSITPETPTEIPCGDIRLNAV
Method in brief: as §1

SMILES	α1 [%] (adrenergic α1 receptor)	inhibition at 1 µM (dopaminergic D2 receptor)	inhibition at 1 µM [1]	inhibition at 1 µM [2]	inhibition at 1 µM [3]	inhibition at 1 µM (dopaminergic D3 receptor)	inhibition at 1 µM [4]	inhibition at 1 µM [5]	inhibition at 1 µM (muscarinic M3 receptor)	inhibition at 1 µM (adrenergic α2C receptor)	σ [%] (sigma σ receptor)	inhibition at 1 µM [6]	inhibition at 1 µM [7]
CC(C)(C)c1ccc(S(=O)(=O)NCCCN2CCN(c3nsc4ccccc34)CC2)cc1 [Compound 256, N-[3-[4-(1,2-Benzothiazol-3-yl)piperazin-1-yl]propyl]-4-tert-butylbenzenesulphonamide]	87%	97%	102%	94%	96%	96%	100%	95%	15%	92%	41%	94%	93%
O=S(=O)(NCCCN1CCN(c2nsc3ccccc23)CC1)c1ccc(C(F)(F)F)cc1 [Compound 257, N-[3-[4-(1,2-Benzothiazol-3-yl)piperazin-1-yl]propyl]-4-(trifluoromethyl)benzenesulphonamide]	94%	99%	101%	83%	99%	100%	101%	94%	12%	99%	57%	91%	93%
O=S(=O)(NCCCN1CCN(c2nsc3ccccc23)CC1)c1cccc(C(F)(F)F)c1 [Compound 258, N-[3-[4-(1,2-Benzothiazol-3-yl)piperazin-1-yl]propyl]-3-(trifluoromethyl)benzenesulphonamide]	97%	95%	101%	86%	100%	97%	100%	98%	15%	98%	61%	97%	80%
O=S(=O)(NCCCN1CCN(c2nsc3ccccc23)CC1)c1ccc(-c2ccccc2)cc1 [Compound 260, N-[3-[4-(1,2-Benzothiazol-3-yl)piperazin-1-yl]propyl]-4-phenylbenzenesulphonamide]	91%	99%	102%	90%	96%	98%	100%	92%	11%	99%	41%	95%	90%
O=S(=O)(NCCCN1CCN(c2nsc3ccccc23)CC1)c1cccs1 [Compound 261, N-[3-[4-(1,2-Benzothiazol-3-yl)piperazin-1-yl]propyl]thiophene-2-sulphonamide]	−90%	97%	102%	87%	98%	98%	100%	83%	15%	92%	57%	92%	60%
O=S(=O)(NCCCN1CCN(c2nsc3ccccc23)CC1)c1cc2ccccc2s1 [Compound 262, N-[3-[4-(1,2-Benzothiazol-3-yl)piperazin-1-yl]propyl]benzothiophene-2-sulphonamide]	95%	98%	102%	84%	99%	98%	99%	93%	19%	94%	51%	95%	87%
O=S(=O)(NCCCN1CCN(c2nsc3ccccc23)CC1)c1csc2ccccc12 [Compound 263, N-[3-[4-(1,2-Benzothiazol-3-yl)piperazin-1-yl]propyl]benzothiophene-3-sulphonamide]	90%	98%	102%	87%	98%	98%	98%	96%	7%	93%	49%	93%	87%
O=S(=O)(NCCCN1CCN(c2nsc3ccccc23)CC1)c1cccc2scnc12 [Compound 267, N-[3-[4-(1,2-Benzothiazol-3-yl)piperazin-1-yl]propyl]-1,3-benzothiazole-4-sulphonamide]	97%	100%	101%	78%	98%	99%	100%	95%	13%	99%	50%	92%	91%
O=S(=O)(NCCCN1CCN(c2nsc3ccccc23)CC1)c1ccc2cn[nH]c2c1 [Compound 268, N-[3-[4-(1,2-Benzothiazol-3-yl)piperazin-1-yl]propyl]-1H-indazole-6-sulphonamide]	90%	98%	102%	78%	98%	98%	99%	93%	14%	99%	30%	95%	86%
